Test results: patent US5945507A, “Antimicrobial peptides” (University of Pittsburgh, priority 1997, dated 1999)
Entries after “also recorded” stand apart in the source; their conditions may differ. Like-named read-outs stand apart in the source and are kept apart here. Bridge positions count the residues as written; N and C are the ends. Ends that are not written are not given here. I, II: the chains in the order shown.

Assays:
[1] = test system: human red blood cells (RBC); assay type: cell-based; details: for hemolytic activity (in words): red blood cells; for hemolytic activity: red cells of human, 100 μM; for % lysis at 100 μM: erythrocytes, 100 μM peptide
Source text: Erythrocyte Lysis Assay. Peptides were screened for hemolytic activity by treating freshly isolated human red blood cells (RBC) with various concentrations of peptides, centrifuging the samples to pellet intact cells, and measuring the amount of hemoglobin in the supernatant to determine the extent of RBC lysis under each condition. The method used is essentially that described by Srinivas et al. (J. Biol. Chem. 267:7121-7127, 1992) with the following modifications: peptide concentrations of 0.1-100 μM were tested, the incubation period was 1 hour at 37° C., and the A570 was measured in duplicate wells of a 96-well plate. A calibration curve was constructed by treating various amounts of red blood cells (0, 20,40, 60, 80, and 100% of the volume of RBC used in test samples) with plain water, which completely lyses the cells. The standard curve was used to calculate the percent lysis at each peptide concentration.

[2] = test system: S. aureus; assay type: cell-based, Staphylococcus aureus; details: for antibacterial activity (in words): S. aureus; for MBC50: in µM
Method: Bacterial lysis assay. Bacterial lysis assays were conducted in a manner similar to that described previously (Lehrer, R. I., M. E. Selsted, D. Szklarek, and F. J. 1983. Infect. Immun. 42:10-14, 1983; Miller, M. A., R. F. Garry, J. M. Jaynes, and R. C. Montelaro, AIDS Res Hum Retroviruses 7:511-519, 1991). Bacterial suspensions were cultured in Luria Broth to mid-log growth phase and washed by several cycles of centrifugation and resuspension in 10 mM phosphate buffer. The A600 of the suspension was adjusted with 10 mM phosphate buffer such that, upon dilution, 5-10×10^5 CFU/ml would be treated in the assay. Bacteria were incubated with two-fold dilutions of peptides (32-0.1 μM in 96-well plates in 10 mM phosphate buffer, pH 7.2, for 1 hour. Ten-fold dilutions were performed to a dilution of 1:1000; a 100-μl aliquot from each condition was plated on tryptic soy agar (Difco, Detroit, Mich.) and the plates were incubated overnight. Colonies of surviving bacteria (colony-forming units) were counted and compared to untreated controls to determine the amount of peptide-induced killing under each condition. Log killing is defined as the log of the ratio of CFUs present before and after treatment with peptide. Complete killing is indicated where there were zero colonies per 100-μl aliquot of undiluted bacteria-peptide mixture.
Calculation of MBC. […] The minimal bactericidal concentration, MBC, is the peptide concentration at which 99.9% (3 logs) killing is achieved (Pearson et al., Antimicrob. Agents Chemother. 18:699-708, 1980). The MBC50 is the peptide concentration at which 50% killing is achieved.

[3] = test system: S. aureus; experiment: Kinetics of bacterial killing, S. aureus; assay type: cell-based, Staphylococcus aureus; details: 10 μM peptide, FIG. 5
Method: Kinetics of Bacterial Killing. The time course of the cytolytic activity of a peptide was determined by a modification of the above procedure, where a volume of appropriately diluted bacteria was treated with 1-10 μM peptide; aliquots of this mixture were removed every 10 seconds and diluted 1:2 in 2× Luria Broth; each resulting suspension was subsequently plated on agar as described above. The number of colonies visible upon incubation for each time point was used to calculate a rate of killing by the peptide.

[4] = Table 6, truncated analogs, 50% reduction of CFU/ml
[5] = Table 6, truncated analogs, 99.9% reduction of CFU/ml
[6] = Table 4, peptide concentration (closest 2-fold dilution) reducing CFU/ml by 50%
[7] = Table 4, peptide concentration (closest 2-fold dilution) reducing CFU/ml by 99.9%, 1 hour
[8] = Table 7, substitution analogs, 50% reduction of CFU/ml
[9] = Table 7, substitution analogs, 99.9% reduction of CFU/ml

| Substance | hemolytic activity (in words) [1] | antibacterial activity (in words) [2] | % lysis at 100 μM ([1]; Table 7) | MBC50 [2, 8] | MBC [2, 9] | also measured |
| --- | --- | --- | --- | --- | --- | --- |
| GACRAIRHIPRRIR [LP14] | virtually no hemolytic activity | high level of antibacterial activity |  |  |  | hemolytic activity [1]: less than 10%; MBC50 [2, 4]: 2.5; MBC [2, 5]: 10 µM |
| RVIEVVQGACRAIRHIPRRIRQGLERIL [LLP1] | Below 10 μM very little lysis is observed |  |  |  |  | % lysis at 100 μM ([1]; Table 8): 100%; hemolytic LD50 ([1]; text b508): 20 to 40 µM; killing within one minute [3]: over 99.99% |
| YHRLRDLLLIVTRIVELLGRR [LLP2, HIVHXB2R 768-788] |  | highly active |  |  |  | MBC50 [2, 6]: 1; MBC [2, 7]: 4 µM |
| RVIEVVQGACRAIRHIPRRSRQGLERIL [Peptide I847S, engineered analog of LLP1] | significantly reduced | reduces antibacterial activity | < 10% | 5 | 20 µM |  |
| RVIEVVQGACRASRHIPRRIRQGLERIL [Peptide I840S, engineered analog of LLP1] | significantly reduced | reduces antibacterial activity | < 10% | 2.5 | 10 to 20 µM |  |
| DLWETLRRGGRWILAIPRRIRQGLELTL [SLP1] |  |  |  |  |  | MBC50 [2, 6]: 8; MBC [2, 7]: > 16 µM |
| FLIRQLIELLTWLFSNCRTLLSEVY [SLP2A1, engineered analog of SLP2A] |  |  | 7% | > 32 | > 32 µM |  |
| RVIEVVQGACRAIEHIPRRIEQGLERIL [Analog 3, engineered analog of LLP1] | devoid of activity | devoid of activity | < 5% | > 80 | > 80 µM |  |
| RVIEVVQGACRAIEHIPRRIRQGLERIL [Peptide R841E, engineered analog of LLP1] | reducing both the antibacterial and hemolytic activity | reducing both the antibacterial and hemolytic activity | 30% | 10-20 | 40 to 80 µM |  |
| RVIEVVQGACRAIRHIPRRIEQGLERIL [Peptide R848E, engineered analog of LLP1] | reducing both the antibacterial and hemolytic activity | reducing both the antibacterial and hemolytic activity | 10% | 20 | 80 µM |  |
| I: RVIEVVQGACRAIRHIPRRIRQGLERIL / II: RVIEVVQGACRAIRHIPRRIRQGLERIL (disulfide I:10-II:10) [bis-LLP1] |  |  |  |  |  | % lysis at 100 μM ([1]; Table 8): 100% |
| RVIEVVQGACRAIRHIPRRIR [LP21] | virtually no hemolytic activity | high level of antibacterial activity |  |  |  | hemolytic activity [1]: less than 10%; MBC50 [2, 4]: 2.5; MBC [2, 5]: 10 µM |
| LLSEVYQILQPILQELSATLQRIREVLR [SLP2B1, engineered analog of SLP2B] |  |  | 10% | > 32 | > 32 µM |  |
| RVIEVVQGACRAIRHIPRRIRGQLERIL [LLP1-Am, LLP1 with chemically modified cysteine] |  |  |  |  |  | % lysis at 100 μM ([1]; Table 8): 15%; MBC50 ([2]; Table 8, cysteine substitution analogs, 50% reduction of CFU/ml): 5; MBC ([2]; Table 8, cysteine substitution analogs, 99.9% reduction of CFU/ml): 20 µM |
| VVQGACRAIRHIPRRIR [LP17] | virtually no hemolytic activity | high level of antibacterial activity |  |  |  | hemolytic activity [1]: less than 10%; MBC50 [2, 4]: 5; MBC [2, 5]: 20 µM |
| LLSRVYQILQPILQRLSATLQRIREVLR [SLP2B, SIVMM239 790-817] |  | highly active |  |  |  | MBC50 [2, 6]: .25; MBC [2, 7]: 1 µM |
| FLIRQLIRLLTWLFSNCRTLLSRVY [SLP2A, SIVMM239 771-795] | rather hemolytic | highly active |  |  |  | MBC50 [2, 6]: 4; MBC [2, 7]: > 32 µM |
| RIAGYGLRGLAVIIRICIRGLNLIFEIIR [ELP, EIAV 808-836 (Wyoming)] | high hemolytic activity; also recorded: highly hemolytic | absence of measurable bactericidal activity; also recorded: little antibacterial activity |  |  |  | MBC50 [2, 6]: > 10; MBC [2, 7]: > 10 µM |
| RVIRVVQGACRAIRHIPRRIRQGLRRIL [Analog 5, engineered analog of LLP1] | very high antibacterial and hemolytic activity | very high antibacterial and hemolytic activity | 100% | 0.3 | 2.5 µM |  |
